In ChEMBL document CHEMBL5346877, “A-ring-fused pyrazoles of dihydrotestosterone targeting prostate cancer cells via the downregulation of the androgen receptor” (Eur J Med Chem, 2023):
Calls of active or inactive are those of the source. The rule behind the calls is not given here.

Key:
LAPC4 [1] = assay: Inhibition of colony formation in human LAPC4 cells at 10 uM incubated for 10 days by crystal violet staining based assay; assay type: functional; details: LAPC4, 240 h, time 10 day
LAPC4 [2] = assay: Cytotoxicity against human LAPC4 cells assessed as cell viability at 20 uM incubated for 72 hrs by resazurin dye based microplate reader assay; assay type: functional; details: read-out: Activity
CWR22R [3] = assay: Cytotoxicity against human 22Rv1 cells assessed as cell viability at 20 uM incubated for 72 hrs by resazurin dye based microplate reader assay; assay type: functional; details: read-out: Activity
DU-145 [4] = assay: Cytotoxicity against human DU-145 cells assessed as cell viability at 20 uM incubated for 72 hrs by resazurin dye based microplate reader assay; assay type: functional; details: read-out: Activity
LAPC4 [5] = assay: Inhibition of colony formation in human LAPC4 cells at 5 uM incubated for 10 days by crystal violet staining based assay; assay type: functional, cell-based; details: time 10.0 day
[6] = biological target: T1, Androgen receptor (Homo sapiens) (UniProt P10275); assay: Antagonist activity at AR in human LAPC4 cells assessed as reduction in Nkx3.1 expression at 10 uM incubated for 24 hrs in presence of R1881 by Western blotting analysis; assay type: cell-based; details: filed as antagonist
T1 sequence (whole entry): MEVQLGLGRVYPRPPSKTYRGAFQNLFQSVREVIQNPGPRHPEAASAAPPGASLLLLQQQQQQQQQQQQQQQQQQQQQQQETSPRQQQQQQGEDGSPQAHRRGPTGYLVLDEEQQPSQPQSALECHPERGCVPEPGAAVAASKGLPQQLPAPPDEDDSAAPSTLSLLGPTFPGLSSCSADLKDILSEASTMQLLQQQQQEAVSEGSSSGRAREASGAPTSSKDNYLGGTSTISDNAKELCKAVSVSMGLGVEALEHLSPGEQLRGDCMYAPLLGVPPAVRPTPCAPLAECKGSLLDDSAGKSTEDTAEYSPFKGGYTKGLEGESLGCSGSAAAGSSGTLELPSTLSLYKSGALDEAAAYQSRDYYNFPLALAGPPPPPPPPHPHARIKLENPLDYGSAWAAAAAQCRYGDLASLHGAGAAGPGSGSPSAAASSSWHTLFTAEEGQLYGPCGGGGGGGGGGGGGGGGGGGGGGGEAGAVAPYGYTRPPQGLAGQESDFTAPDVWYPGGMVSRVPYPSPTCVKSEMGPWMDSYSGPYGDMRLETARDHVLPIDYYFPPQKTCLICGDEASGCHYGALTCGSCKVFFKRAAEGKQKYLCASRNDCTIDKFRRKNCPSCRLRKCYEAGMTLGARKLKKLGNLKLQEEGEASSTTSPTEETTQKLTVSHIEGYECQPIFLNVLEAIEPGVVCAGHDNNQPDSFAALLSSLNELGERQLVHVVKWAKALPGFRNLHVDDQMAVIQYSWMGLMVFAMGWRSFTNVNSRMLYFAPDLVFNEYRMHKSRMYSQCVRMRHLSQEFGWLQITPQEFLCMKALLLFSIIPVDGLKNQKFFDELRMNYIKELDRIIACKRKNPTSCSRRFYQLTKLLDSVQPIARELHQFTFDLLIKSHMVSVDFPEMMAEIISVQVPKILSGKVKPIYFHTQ

[7] = biological target: T1, Androgen receptor (Homo sapiens); assay: Antagonist activity at AR in human LAPC4 cells assessed as reduction in PSA expression at 10 uM incubated for 24 hrs in presence of R1881 by Western blotting analysis; assay type: cell-based; details: filed as antagonist
[8] = biological target: T1, Androgen receptor (Homo sapiens); assay: Antagonist activity at AR in human LNCaP-abl cells assessed as reduction in phosphorylation at S81 at 10 uM incubated for 24 hrs in presence of R1881 by Western blotting analysis; assay type: cell-based; details: filed as antagonist
[9] = biological target: T1, Androgen receptor (Homo sapiens); assay: Antagonist activity at AR in human LNCaP-abl cells assessed as reduction in PSA expression at 10 uM incubated for 24 hrs in presence of R1881 by Western blotting analysis; assay type: cell-based; details: filed as antagonist
[10] = biological target: T1, Androgen receptor (Homo sapiens); assay: Antagonist activity at AR in human LAPC4 cells incubated for 24 hrs in presence of R1881 by Western blotting analysis; assay type: cell-based; details: filed as antagonist, dose 1.25-10 µM
[11] = biological target: T1, Androgen receptor (Homo sapiens); assay: Antagonist activity at AR in human 22Rv1 cells incubated for 24 hrs in presence of R1881 by Western blotting analysis; assay type: cell-based; details: filed as antagonist
[12] = biological target: T1, Androgen receptor (Homo sapiens); assay: Antagonist activity at AR in human LNCaP cells incubated for 24 hrs in presence of R1881 by Western blotting analysis; assay type: cell-based; details: filed as antagonist
[13] = biological target: T1, Androgen receptor (Homo sapiens); assay: Antagonist activity at AR in human LNCaP cells assessed as reduction in PSA expression at 2 to 10 uM incubated for 72 hrs by Western blotting analysis; assay type: cell-based; parameters: scale not given: the % may be the effect or the level left; details: filed as antagonist, dose 2-10 µM
[14] = biological target: T1, Androgen receptor (Homo sapiens); assay: Antagonist activity at AR in human LNCaP cells assessed as reduction in Nkx3.1 expression at 2 to 10 uM incubated for 72 hrs by Western blotting analysis; assay type: cell-based; parameters: scale not given: the % may be the effect or the level left; details: filed as antagonist, dose 2-10 µM
LAPC4 [15] = assay: Antiproliferative activity against human LAPC4 cells assessed as viable cells at 2 to 10 uM incubated for 24 to 48 hrs by resazurin dye based assay; assay type: functional; details: dose 2-10 µM, time 24-48 hrs
LAPC4 [16] = assay: Antiproliferative activity against human LAPC4 cells assessed as decrease in […] at 2 to 10 uM incubated for 24 to 72 hrs by resazurin dye based assay; assay type: functional, cell-based; details: dose 2-10 µM, time 24-72 hrs
LAPC4 [17] = assay: Induction of apoptosis in human LAPC4 cells assessed as PARP-1 expression at 2 to 10 uM incubated for 48 to 72 hrs; assay type: functional, cell-based; details: dose 2-10 µM, time 48-72 hrs
LAPC4 [18] = assay: Induction of apoptosis in human LAPC4 cells assessed as cleaved caspase-7 expression at 2 to 10 uM incubated for 48 to 72 hrs; assay type: functional, cell-based; details: dose 2-10 µM, time 48-72 hrs
LAPC4 [19] = assay: Induction of apoptosis in human LAPC4 cells assessed as cleaved caspase-3 expression at 2 to 10 uM incubated for 48 to 72 hrs; assay type: functional, cell-based; details: dose 2-10 µM, time 48-72 hrs
LAPC4 [20] = assay: Reversal of AR degradation in human LAPC4 cells at 10 to 20 uM preincubated for 1 hr followed by bav-degalutamide addition and measured after 4 hrs; assay type: functional, cell-based; details: dose 10-20 µM, time 5.0 hrs
[21] = biological target: T1, Androgen receptor (Homo sapiens); assay: Binding affinity to His6 tagged recombinant human AR LBD expresssed in Escherichia coli BL21(DE3) cells by MST assay; details: filed as antagonist
LAPC4 [22] = assay: Antiproliferative activity against human LAPC4 cells; assay type: functional; details: time 72 hrs
LAPC4 [23] = assay: Induction of cell cycle arrest in human LAPC4 cells assessed as reduction S phase cells incubated for 48 hrs; assay type: functional, cell-based
CWR22R [24] = assay: Induction of cell cycle arrest in human 22Rv1 cells assessed as reduction S phase cells incubated for 48 hrs; assay type: functional, cell-based
DU-145 [25] = assay: Induction of cell cycle arrest in human DU-145 cells assessed as reduction S phase cells incubated for 48 hrs; assay type: functional, cell-based
Androgen receptor = biological target: T2, Androgen receptor (Homo sapiens, UniProt P10275); assay: Antagonist activity at AR transcription in human 22Rv1 cells incubated for 24 hrs in presence of R1881; assay type: cell-based
T2 sequence (P10275 whole entry): T1 sequence (whole entry)

[26] = biological target: T1, Androgen receptor (Homo sapiens); assay: Antagonist activity at AR transcription in human 22Rv1 cells assessed as reduction in PSA mRNA expression at 10 uM incubated for 24 hrs in presence of R1881 by qPCR analysis; assay type: cell-based; details: filed as antagonist
[27] = biological target: T1, Androgen receptor (Homo sapiens); assay: Antagonist activity at AR transcription in human LAPC4 cells assessed as reduction in PSA mRNA expression at 10 uM incubated for 24 hrs in presence of R1881 by qPCR analysis; assay type: cell-based; details: filed as antagonist
[28] = biological target: T1, Androgen receptor (Homo sapiens); assay: Antagonist activity at AR transcription in human LAPC4 cells assessed as reduction in AR mRNA expression at 10 uM incubated for 24 hrs in presence of R1881 by qPCR analysis; assay type: cell-based; details: filed as antagonist
[29] = Downregulation of AR protein expression in human LAPC4 cells assessed as AR levels at 10 uM incubated for 24 hrs by immunoblotting analysis; assay type: functional

Row | SMILES | inhibition at 10 µM (LAPC4 [1]) [%] | viability at 20 µM (LAPC4 [2]) [%] | viability at 20 µM (CWR22R [3]) [%] | viability at 20 µM (DU-145 [4]) [%] | inhibition (LAPC4 [5]) | Activity [6] | Activity [7] | Activity [8] | Activity [9] | Activity [29] [%] | other results
1 | Cc1c2c(nn1-c1ccccc1)C[C@@H]1CC[C@@H]3[C@H](CC[C@]4(C)[C@@H](O)CC[C@@H]34)[C@@]1(C)C2 | 1 | 65 | 24 | 97 | Active | Active | Active | – | – | – | –
2 | Cc1c2c(nn1-c1ccc(F)cc1)C[C@@H]1CC[C@@H]3[C@H](CC[C@]4(C)[C@@H](O)CC[C@@H]34)[C@@]1(C)C2 | 3 | 38 | 26 | ≥ 100 | Active | Active | Active | Active | Active | – | Activity [10]: Dose-Dependent Effect; Activity [11]: Dose-Dependent Effect; Activity [12]: Dose-Dependent Effect; Activity [13]: 100%; Activity [14]: 100%; Activity (LAPC4 [15]): >80%; Activity (LAPC4 [16]): Active; Activity (LAPC4 [17]): Active; Activity (LAPC4 [18]): Active; Activity (LAPC4 [19]): Active; Activity (LAPC4 [20]): Active; Activity [21]: Active; GI50 (LAPC4 [22]): 7.9 µM; Activity (LAPC4 [23]): Active; Activity (CWR22R [24]): Active; Activity (DU-145 [25]): inactive; IC50 (Androgen receptor): 1.18 µM; Activity [26]: Active; Activity [27]: Active; Activity [28]: Active
3 | Cn1nc2c(c1-c1ccc(Br)cc1)C[C@@]1(C)[C@@H](CC[C@@H]3[C@@H]1CC[C@]1(C)C(=O)CC[C@@H]31)C2 | 15 | 20 | 56 | 96 | Active | Active | Active | – | – | 49 | –
4 | Cn1nc2c(c1-c1ccco1)C[C@@]1(C)[C@@H](CC[C@@H]3[C@@H]1CC[C@]1(C)[C@@H](O)CC[C@@H]31)C2 | 2 | 50 | 18 | 100 | Active | Active | Active | – | – | 78 | –
5 | Cc1c2c(nn1-c1ccc(C#N)cc1)C[C@@H]1CC[C@@H]3[C@H](CC[C@]4(C)C(=O)CC[C@@H]34)[C@@]1(C)C2 | 29 | 78 | 87 | ≥ 100 | Active | – | – | Active | Active | – | –
6 | Cn1nc2c(c1-c1cccs1)C[C@@]1(C)[C@@H](CC[C@@H]3[C@@H]1CC[C@]1(C)[C@@H](O)CC[C@@H]31)C2 | 1 | 46 | 44 | 100 | Active | Active | Active | – | – | 87 | –
